Results on 34 compounds are retold here after patent publication US7807704B2, “Bicyclic, nitrogen-containing compounds modulating CXCR4 and/or CCXCKR2” (Chemocentryx, Inc., priority 2006, dated 2010).

T1 sequence (P61073 whole entry): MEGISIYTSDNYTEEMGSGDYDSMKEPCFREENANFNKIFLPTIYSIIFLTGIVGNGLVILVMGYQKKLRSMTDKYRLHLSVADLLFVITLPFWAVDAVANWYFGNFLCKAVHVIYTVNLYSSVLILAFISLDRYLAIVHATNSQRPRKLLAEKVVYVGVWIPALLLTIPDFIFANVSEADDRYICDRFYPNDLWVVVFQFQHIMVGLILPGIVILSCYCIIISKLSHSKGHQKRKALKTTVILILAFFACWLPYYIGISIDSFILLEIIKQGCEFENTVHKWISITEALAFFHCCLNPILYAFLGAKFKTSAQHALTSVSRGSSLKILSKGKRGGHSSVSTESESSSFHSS

This assay addresses T1, CXCR4 (Homo sapiens, UniProt P61073).
T1 construct: all endogenously expressing CXCR4; endogenous in cells; host or cells: CEM-Nkr, CCRF-CEM, Jurkat, Molt-4; IL-2 stimulated human lymphocytes
The assay can be described thus: chemotaxis assay or 125I SDF-1α binding assay for CXCR4. The settings on record: first or only activity listed, read-out: CXCR4 activity (IC50 class). As for the experimental part:
CEM-Nkr, CCRF-CEM (ATCC #CCL-119), Jurkat (ATCC #TIB-152), Molt-4 (ATCC# CRL-1582), cell lines, all endogenously expressing CXCR4, were used in compound screening and subsequent assays. These cell lines were cultured as a suspension in RPMI-1640 medium supplemented with 2 mM L-glutamine, 1.5 g/L sodium bicarbonate, 4.5 g/L glucose, 10 mM HEPES, 1 mM sodium pyruvate, and 10% FBS. Cells were grown under 5% CO2/95% air, 100% humidity at 37° C. and subcultured twice weekly at 1:6 (cells were cultured at a density range of 1×10^5 to 2×10^6 cells/mL) and harvested at 1×10^6 cells/mL. • b) Isolated Human IL-2 Stimulated Lymphocytes
Cells were centrifuged and resuspended in assay buffer (20 mM HEPES pH 7.1, 140 mM NaCl, 1 mM CaCl2, 5 mM MgCl2, and with 0.2% bovine serum albumin) to a concentration of 4×10^6 cells/mL for cell lines. Binding assays were set up as follows. […] Then 0.1 mL of ^125I labeled SDF-1α (obtained from Perkin Elmer Life Sciences, Boston, Mass.) diluted in assay buffer to a final concentration of ˜50 pM, yielding ˜30,000 cpm per well, was added, the plates sealed and incubated for approximately 3 hours at 4° C. on a shaker platform. Reactions were aspirated onto GF/B glass filters pre-soaked in 0.3% polyethyleneimine (PEI) solution, on a vacuum cell harvester (Packard Instruments; Meriden, Conn.). Scintillation fluid (40 μl; Microscint 20, Packard Instruments) was added to each well, the plates were sealed and radioactivity measured in a Topcount scintillation counter (Packard Instruments). Control wells containing either diluent only (for total counts) or excess SDF1 a (1 μg/mL, for non-specific binding) were used to calculate the percent of total inhibition for compound. The computer program Prism from GraphPad, Inc. (San Diego, Calif.) was used to calculate IC50 values. IC50 values are those concentrations required to reduce the binding of radiolabeled SDF-1α to the receptor by 50%. (For further descriptions of ligand binding and other functional assays, see Dairaghi, et al., J. Biol. Chem. 274:21569-21574 (1999), Penfold, et al., Proc. Natl. Acad. Sci. USA. 96:9839-9844 (1999), and Dairaghi, et al., J. Biol. Chem. 272:28206-28209 (1997)).
Chemotaxis assays were performed using 5 μm pore polycarbonate, polyvinylpyrrolidone-coated filters in 96-well chemotaxis chambers (Neuroprobe; Gaithersburg, Md.) using chemotaxis buffer (Hank's balanced salt solution (HBSS) and 1% FBS). CXCR4 ligand (i.e., SDF1a, R&D Systems; Minneapolis, Minn.) are use to evaluate compound mediated inhibition of CXCR4 mediated migration. Other chemokines (i.e., TECK; R&D Systems; Minneapolis, Minn.) are used as specificity controls. The lower chamber was loaded with 29 μl of chemokine (i.e., 0.1 nM SDF1a); the top chamber contained 50,000 Jurkat cells or IL-2 lymphocytes in 20 μl. The chambers were incubated 2 hours at 37° C., and the number of cells in the lower chamber quantified either by direct cell counts in five high powered fields per well or by the CyQuant assay (Molecular Probes), a fluorescent dye method that measures nucleic acid content and microscopic observation.
To evaluate small organic molecules that prevent the CXCR4 from binding ligand, an assay was employed that detected radioactive ligand (i.e, SDF-1) binding to cells expressing CXCR4 on the cell surface (for example, CEM-Nkr cells). For compounds that inhibited binding, whether competitive or not, fewer radioactive counts are observed when compared to uninhibited controls.
Equal numbers of cells were added to each well in the plate. The cells were then incubated with radiolabeled […]. Unbound ligand was removed by washing the cells, and bound ligand was determined by quantifying radioactive counts. Cells that were incubated without any organic compound gave total counts; non-specific binding was determined by incubating the cells with unlabeled ligand and labeled ligand. Percent inhibition was determined by the equation: […]
On to `CN(CCCNC(=O)Cn1ccc2cccc(-c3ccc(F)cc3)c21)C1CCCCC1` [No 1], for which the IC50 is less than 1000 nM. Consider `CN(CCNC(=O)Cn1ncc2ccccc21)C1CCCCC1` [No 2], for which the IC50 is greater than 10000 nM. For `CC(C)c1ccc(-c2ccc3ccn(CC(=O)NCCN4CCCC5CCCCC54)c3c2)cc1` (stereo not shown) [No 3] the value was less than 1000 nM; for `O=C(Cn1ccc2cccc(-c3ccc(F)cc3)c21)NCCN1CCCC2CCCCC21` (stereo not shown) [No 4], less than 1000 nM. `CN(CCNC(=O)Cn1ncc2c1CCCC2)C1CCCCC1` [No 6]: the IC50 is greater than 10000 nM. To `CN(CCNC(=O)Cn1cnc2ncccc21)C1CCCCC1` [No 7] belongs 1000 to 10000 nM. To `CN(CCNC(=O)Cn1ccc2cccc([N+](=O)[O-])c21)C1CCCCC1` [No 8] belongs less than 1000 nM; to `Cc1ccc2c(c1)ncn2CC(=O)NCCN(C)C1CCCCC1` [No 9], less than 1000 nM. To `CN(CCNC(=O)Cn1cc2ccccc2n1)C1CCCCC1` [No 10] belongs 1000 to 10000 nM; to `Cc1ccc(-c2ccc3ccn(CC(=O)NCCN4CCCCC4)c3c2)cc1` [No 11], less than 1000 nM. Consider `Cc1ccc(-c2ccc3oc(=O)n(CC(=O)NCCN(C)C4CCCCC4)c3c2)cc1` [No 12], for which the IC50 is less than 1000 nM. `Cc1ccc(-c2ccc3ccn(CC(=O)NCCNC4CCOC4)c3c2)cc1` (stereo not shown) [No 13]: the concentration for half-maximal inhibition (IC50) was in the range of 1000 to 10000 nM. To `Cc1ccc(-c2ccc3cc(C(=O)O)n(CC(=O)NCCN(C)C4CCCCC4)c3c2)cc1` [No 14] belongs less than 1000 nM; to `Cc1ccc(-c2ccc3ccn(CC(=O)NC(C)(C)CN4CCCC4)c3c2)cc1` [No 15], 1000 to 10000 nM; to `Cc1ccc(-c2ccc3c(C4=CCCC=C4)nn(CC(=O)NCCN(C)C4CCCCC4)c3c2)cc1` [No 16], 1000 to 10000 nM. For `COc1cc(-c2ccc(C)cc2)cc2c1ccn2CC(=O)NCCN(C)C1CCCCC1` [No 17] the value was less than 1000 nM. To `CN(CCNC(=O)Cn1cnc2c(F)c(F)ccc21)C1CCCCC1` [No 18] belongs less than 1000 nM. Regarding `CN(CCNC(=O)Cn1cnc2c1CCOC2)C1CCCCC1` [No 19], the half-inhibitory concentration (IC50) was greater than 10000 nM. `CN(CCNC(=O)Cc1c[nH]c2ccccc12)C1CCCCC1` [No 20]: the IC50 lay within 1000 to 10000 nM. In the case of `CN(CCNC(=O)Cn1nc(Cl)c2ccccc21)C1CCCCC1` [No 21], the IC50 fell in the range of 1000 to 10000 nM. To `CN(CCNC(=O)Cn1ccc2ccc(-c3ccccc3)cc21)C1CCCCC1` [No 22] belongs less than 1000 nM; to `CN(CCNC(=O)Cn1ccc2ccc(-c3ccc(C(F)(F)F)cc3)cc21)C1CCCCC1` [No 25], less than 1000 nM; to `CN(CCNC(=O)Cn1ccc2ccc(-c3ccc(Cl)cc3)cc21)C1CCCCC1` [No 29], less than 1000 nM. For the compound `Cc1ccccc1-c1ccc2ccn(CC(=O)NCCN(C)C3CCCCC3)c2c1` [No 30], the IC50 fell in the range of 1000 to 10000 nM.

For `CN(CCNC(=O)Cn1ccc2ccc(-c3cnc4ccccc4c3)cc21)C1CCCCC1` [No 36], the IC50 is less than 1000 nM. For `CN(CCNC(=O)Cn1ccc2ccc(-c3cc4ccccc4o3)cc21)C1CCCCC1` [No 37] the value was less than 1000 nM; for `CCc1ccc(-c2ccc3ccn(CC(=O)NCCN(C)C4CCCCC4)c3c2)cc1` [No 38], less than 1000 nM.

For the compound `Cc1cccc(-c2ccc3ccn(CC(=O)NCCN(C)C4CCCCC4)c3c2)c1` [No 39], the IC50 is less than 1000 nM. `CN(CCNC(=O)Cn1ccc2ccc(-c3ccncc3)cc21)C1CCCCC1` [No 40]: the IC50 was less than 1000 nM. For `Cc1ccc(-c2ccc3c(ccn3CC(=O)NCCN(C)C3CCCCC3)c2)cc1` [No 41] the value was less than 1000 nM; for `CN(CCNC(=O)Cn1ccc2cc(-c3ccc(F)cc3)ccc21)C1CCCCC1` [No 42], less than 1000 nM; for `Cc1ccc(-c2cccc3c2ccn3CC(=O)NCCN(C)C2CCCCC2)cc1` [No 43], less than 1000 nM. For the compound `Cc1ccc(-c2ccc3ccn(CC(=O)NCCN4CCC[C@@H]5CCCC[C@H]54)c3c2)cc1` [No 44], the IC50 was less than 1000 nM. For `C=Cc1ccc(-c2ccc3ccn(CC(=O)NCCN(C)C4CCCCC4)c3c2)cc1` [No 45] the value was less than 1000 nM.
